Patent US20110318272A1, “PESTICIDAL MIXTURES GIVING S[…]” (priority 2010, published 2011)
Entries after “also recorded” stand apart in the source; their conditions may differ. Like-named read-outs stand apart in the source and are kept apart here.

Key:
Myzus persicae = details: for Concentration effect ca LD25 3DAA: M. persicae; for pesticidal activity against M. persicae, product alone in mixture study: alone at rate taken as ca. LD25 (BUGOIL 10 mL/L, imidacloprid 0.1, indoxacarb 100, spinosad 1 g (a.i.)/ha); for aphicidal activity against M. persicae when applied alone: range-finding assay
Method: Test arenas consisted of excised leaf discs of the host plant infested with the target organism.
Test arenas consisted of excised leaf discs of the host plant Brassica rapa chinensis infested with the target organism, Myzus persicae. A track sprayer was used to spray the test solutions at an application volume of 200 L/ha. Assessment of mortality (survival), any other sub lethal effects and phytotoxicity were carried out at 24 hours and 72 hours post application (3DAA).

Tetranychus urticae = experiment: Leaf disc track-sprayer bioassay against red spider mite; assay type: in vivo; details: for Concentration effect ca LD25 3DAA / Concentration effect ca LD50 3DAA: T. urticae; for activity against T. urticae when applied alone: range-finding assay
Method: Test arenas consisted of excised leaf discs of the host plant Phaseolus vulgaris infested with the target organism, Tetranychus urticae. A track sprayer was used to spray the test solutions at an application volume of 200 L/ha. Assessment of mortality (survival), any other sub lethal effects and phytotoxicity were carried out at 24 hours and 72 hours post application (3DAA).

Spodoptera litura = experiment: Field study, cutworm on eggplant; assay type: in vivo; details: 7 DAA
Method: (§1) For the field experiments described in Examples 14-16, the numbers of target organisms on host plants were assessed before treatment and after treatment.
(§2) Field studies as described below were carried out to determine the efficacy of BUGOIL®, lambda cyhalothrin, imidacloprid, and abamectin, alone and in mixtures with BUGOIL®, for control of the whitefly Bemisia tabaci, the leafhopper Empoasca biggutula, the aphid Aphis gosspyii, the shoot/fruit borer Leucinodes orbonalis and the cutworm Spodoptera litura on the eggplant cultivar “Casino” (Solanum melongena cv Casino). In the following studies, the dose (N) is the label dose for each product, expressed in concentration (grams active ingredient) per liter of spray mixture (a.i.)/l).
Lambda cyhalothrin is formulated as Karate® (KARATE® with Zeon Technology, Syngenta Phillipines, Inc., Batch No. JAK8,18179, Production Date Nov. 11, 2008, Phillipines Department of Agriculture, Fertilizer and Pesticides Authority (FPA) Reg. No. 011-204-0396), where the dose prior to dilution=N=label dose=0.8 g (a.i.)/l (rated adapted to lepidopterian and leafhopper pests).
(§3) Imidacloprid is formulated as CLIMAX® (CLIMAX® 200 SL, Bayer CropScience, Inc., Batch No. 81001025, Production Date Feb. 22, 2005, FPA Reg. No. 284-240-0761 where the dose prior to dilution=N=label dose=0.15 g (a.i.)/l.
(§4) Abamectin is formulated as AGRI-MEK® (AGRI-MEK® 1.8 EC, Syngenta Phillipines, Inc., FPA Reg. No. 011-234-0791), where the dose prior to dilution=N=label dose=0.018 g (a.i.)/l.

Empoasca biggutula = experiment: Field study, leafhopper on eggplant; assay type: in vivo
Method: as §1, §2, §3, §4

Bemisia tabaci = experiment: Field study, adult whitefly on eggplant; assay type: in vivo; details: over a 14 day test period, product alone
Method: as §1, §2, §3

Trialeurodes sp. = experiment: Field study, adult whitefly on zucchini; assay type: in vivo; details: FIG. 12, imidacloprid alone at N/2 dilution
Method: as §1
Field studies as described below were carried out to determine the efficacy of BUGOIL® alone, lambda cyhalothrin alone, imidacloprid alone, abamectin alone, and mixtures of BUGOIL® with lambda cyhalothrin, imidacloprid, or abamectin, for control of adult whiteflies of different whitefly species, on zucchini and cucumber. In the following studies, the dose (N) is the label dose for each product, expressed in concentration (grams active ingredient) per liter of spray mixture (a.i.)/1).

[1] = system: sucking insect pests (whitefly, leafhoppers and aphids); experiment: Field study, sucking insect pests on eggplant; assay type: in vivo; details: abamectin as AGRI-MEK 1.8 EC, mixtures at reduced rates, sucking insect and lepidopteran pests
Method: as §1, §2

[2] = 72 hours, *not necessarily at the LD25 level, little or no response to the dose range
[3] = 72 hours, *not necessarily at the LD50 level, little or no response to the dose range
[4] = alone at recommended application rate (N)

Spinosad
Concentration effect ca LD25 3DAA (Myzus persicae; [2]): ~10 g a.i./ha | pesticidal activity against M. persicae, product alone in mixture study (Myzus persicae; 72 hours): no measurable pesticidal activity | aphicidal activity against M. persicae when applied alone (Myzus persicae; 72 hours): variable aphicidal activity | Observed mean % mortality of T urticae (Tetranychus urticae; 10 g spinosad/L alone): 8% | Concentration effect ca LD25 3DAA (Tetranychus urticae; 72 hours after application): ~10 g a.i./ha | Concentration effect ca LD50 3DAA (Tetranychus urticae; 72 hours after application): ~50 g a.i./ha | activity against T. urticae when applied alone (Tetranychus urticae; 72 hours): a dose response to spinosad was observed

COC(=O)N(C(=O)N1CO[C@@]2(C(=O)OC)Cc3cc(Cl)ccc3C2=N1)c1ccc(OC(F)(F)F)cc1 [indoxacarb, methyl (4aS)-7-chloro-2,5-dihydro-2-[[(methoxycarbonyl)[4-(trifluoromethoxy)phenyl]amino]carbonyl] indeno[1,2-e][1,3,4]oxadiazine-4a(3H)-carboxylate]
Concentration effect ca LD25 3DAA (Myzus persicae; [2]): ~100 g a.i./ha | pesticidal activity against M. persicae, product alone in mixture study (Myzus persicae; 72 hours): did not have measurable pesticidal activity | aphicidal activity against M. persicae when applied alone (Myzus persicae; 72 hours): little aphicidal activity | Concentration effect ca LD25 3DAA (Tetranychus urticae; [2]): ~100 g a.i./ha | Concentration effect ca LD50 3DAA (Tetranychus urticae; [3]): ~400 g a.i./ha | activity against T. urticae when applied alone (Tetranychus urticae; 72 hours): minimal activity; also recorded: not shown to be active

CC1(C)[C@H](C(=O)O[C@H](C#N)c2cccc(Oc3ccccc3)c2)[C@@H]1/C=C(\Cl)C(F)(F)F (racemic) [lambda-cyhalothrin, Lambda-cyhalothrin]
control of cutworm, S litura (Spodoptera litura; [4]): around 60% | Concentration effect ca LD25 3DAA (Myzus persicae; 72 hours after application): ~0.01 g a.i./ha | aphicidal activity against M. persicae when applied alone (Myzus persicae; 72 hours): high aphicidal activity | pesticidal activity against T. urticae in mixture study (Tetranychus urticae; FIG. 4B, BUGOIL at ca. LD25 (5 mL/L), lambda-cyhalothrin at ca. LD25 (0.05 g (a.i.)/ha), mixtures Treatments 3, 4, 5, 7, 8, 72 hours): showed pesticidal activity | Concentration effect ca LD25 3DAA (Tetranychus urticae; 72 hours after application): ~0.05 g a.i./ha | Concentration effect ca LD50 3DAA (Tetranychus urticae; 72 hours after application): ~0.1 g a.i./ha | activity against T. urticae when applied alone (Tetranychus urticae; 72 hours): active

O=[N+]([O-])NC1=NCCN1Cc1ccc(Cl)nc1 [imidacloprid, (2E)-1-[(6-chloro-3-pyridinyl)methyl]-N-nitro-2-imidazolidinimine]
control of cutworm, S litura (Spodoptera litura; [4]): around 60% | control of leafhoppers (Empoasca biggutula; 1 HAA, imidacloprid alone at half the normal rate (½ N)): 37% | Concentration effect ca LD25 3DAA (Myzus persicae; 72 hours after application): ~0.1 g a.i./ha | mortality rates (Myzus persicae; range finder assay, concentrations of 1 g a.i./ha and above): greater than 90% | aphicidal activity against M. persicae when applied alone (Myzus persicae; 72 hours): active | control of adult whitefly, B. tabaci (Bemisia tabaci): ≤ 50% | control of adult whiteflies (Trialeurodes sp.): 30-40% | Concentration effect ca LD25 3DAA (Tetranychus urticae; [2]): ~100 g a.i./ha | Concentration effect ca LD50 3DAA (Tetranychus urticae; [3]): ~400 g a.i./ha | activity against T. urticae when applied alone (Tetranychus urticae; 72 hours): minimal activity

Abamectin
control of cutworm, S litura (Spodoptera litura; abamectin alone): 70% | control of leafhopper E. biggutula (Empoasca biggutula; 3 days after application 1, BUGOIL alone at 5 mL/L): 78% | control of leafhopper E. biggutula (Empoasca biggutula; 3 days after application 2, BUGOIL alone at 5 mL/L): 66% | control of leafhopper E. biggutula (Empoasca biggutula; 3 days after application 3, BUGOIL alone at 5 mL/L): 49% | control of leafhopper E biggutula (Empoasca biggutula; single application, 3 days after application): around 80% | control of eggplant pests [1]: good effects | Concentration effect ca LD25 3DAA (Myzus persicae; 72 hours after application): ~5 g a.i./ha | mortality rate (Myzus persicae; applied as VERTAN at LD25 (5 g (a.i.)/ha) or above, 72 hours): ~100% | aphicidal activity against M. persicae when applied alone (Myzus persicae; 72 hours): active | Observed mean % mortality of T urticae (Tetranychus urticae; 0.25 g abamectin/L alone): 10% | Concentration effect ca LD25 3DAA (Tetranychus urticae; 72 hours after application): ~0.025 g a.i./ha | Concentration effect ca LD50 3DAA (Tetranychus urticae; 72 hours after application): ~0.040 g a.i./ha | Concentration effect ca LD50 3DAA (Tetranychus urticae; 72 hours after application, listed as Abamectin (Vertan)): ~0.04 g a.i./ha | activity against T. urticae when applied alone (Tetranychus urticae; 72 hours): active
